Data reported in article PMC8131842, “Therapeutic Potential of Vasoactive Intestinal Peptide and its Derivative Stearyl-Norleucine-VIP in Inflammation-Induced Osteolysis” (Frontiers in Pharmacology, 2021).

How the values were obtained:
[1] = Rat model of transepithelial penetrability (vaginal delivery of 125I-SNV, organ radioactivity); type: in vivo; settings: 125I-labelled SNV
Source text: Rat model of transepithelial penetrability. Because of the high hydrophobicity of SNV, we employed an iodination labeling protocol based on the Chloramine T method ([Markwell, 1982]) using 1 mCi Na^125I with a few modifications that included 1) the dissolution of SNV in dimethylformamide (DMF), 2) replacement of the phosphate buffer with 0.2 M HEPES (pH = 7.6), a more compatible buffer, and 3) reaction termination by the addition of sodium metabisulfite and KI. The pharmacokinetic profile of ^125I-SNV absorption and distribution was evaluated following vaginal delivery of the compound to rats. Wistar rats at the estrus phase received 50 µl (7.0 µCi/rat, 15 million CPM, 100 Ci/mM specific activity) of ^125I-SNV dissolved in 5% Sefsol, applied directly in the vagina, using a P100 micro pipettor. At the indicated time points, we anesthetized the rats with chloral hydrate and collected blood before cervical dislocation. We then harvested the uterus, liver, lungs, heart, intestine, kidneys and vagina (duplicate samples were taken from each organ). Organs were weighed and radioactivity levels were measured using a gamma counter. Each point on the chart represents at least two rats.
7.0 microCi/rat (15 million CPM, 100 Ci/mmole specific activity) of radioactive SNV was delivered in the vagina of rats at T0. Each point on the chart represents at least two rats. Levels of radioactivity were monitored over 250 min to assess the remaining amount of SNV in the vagina (A) versus its distribution in the indicated organs (B) as a measure of its penetrability through the vaginal epithelium. Data are Mean ± SD.

rats = assay: Study 001–1 acute subcutaneous toxicity in rats; type: in vivo, rat
Protocol: Toxicology. We performed toxicology studies for SNV that consisted of acute subcutaneous, intravenous and oral toxicity in rats, acute dermal toxicity in rabbits, skin sensitization using adjuvant and patch test in guinea pigs, and single and repeated (for 13 weeks) dose toxicity studies in rats. The latter was a 90-days repeated dose toxicity study, consisting of SNV once a day at three different doses to the penis and vagina of male and female rats, respectively. The compound was tested for the treatment of erectile dysfunction. The active dose (7 µg SNV) was chosen as the lowest dose for the study. The highest dosage group in the repeated dose toxicity study received 3,500 µg ([Gozes et al., 1994]). For study 001 (parts 1 through 3), the 1× dose consisted of 0.5 mg SNV dissolved in 7.1 ml vehicle (3.55 ml 10% Sefsol [glycerin monocaprylate] + 3.55 ml isopropanol) and 100µl/animal were administered; the 1000X dose consisted of 91 mg SNV dissolved in 1.3 ml vehicle (0.65 ml 10% Sefsol +0.65 ml isopropanol) and 100µl/animal were administered. For studies 002 through 004, the indicated doses of SNV (Table 1) were dissolved in 0.25 ml 10% Sefsol +0.25 ml 40% isopropanol (vehicle). The methodology for each of the toxicology studies is detailed in Table 1.

[2] = test system: LPS-stimulated primary murine macrophages (IL1β, IL6 and TNFα expression); assay: Pro-inflammatory cytokine mRNA expression (RT-qPCR) in LPS-stimulated macrophage cultures; type: cell-based, mouse; settings: 10^−6 M, added 1 h before LPS 1 μg/ml, 24 h, bone marrow-derived macrophages
Protocol: Cell culture. Primary bone marrow-derived macrophages (BMDMs) were isolated from the femora and tibiae of 10-week-old C57BL/6J mice (Envigo, Israel), as previously described ([Hiram-Bab et al., 2015]). Briefly, cells were cultured overnight at 37°C in a humidified atmosphere with 5% CO2 in our “standard medium” consisting of alpha-modified Eagle’s medium (αMEM, Life Science Technology, NY, United States) and 10% fetal bovine serum (FBS, Rhenium, Ltd., Modi’in, Israel). After 24 h, the non-adherent fraction was cultured in 10-cm non-culture-treated dishes containing standard medium and 100 ng/ml macrophage colony stimulating factor (M-CSF) ([Takeshita et al., 2000]). The resulting adherent BMDMs were collected after 3 days for the specific assays described below.
RNA isolation, and RT-qPCR. Following a 24 h incubation with Ti particles (or LPS/vehicle only/SNV/VIP in addition to Ti particles), macrophages were washed with sterile PBS, and RNA was extracted using Tri-RNA Reagent (Favorgen Biotech Corp, Kaohsiung, Taiwan). The 260/280 absorbance ratio was measured to verify the RNA purity and concentration. cDNA was produced using a high-capacity cDNA reverse transcription kit (Invitrogen, Grand Island, NY, United States), and real-time PCR was performed using Kapa SYBR Fast qPCR (Kapa Biosystems, Wilmington, MA, United States) on a StepOne real-time PCR machine (Applied Biosystems, Grand Island, NY, United States).
The following primers were used: F-[…] and R-[…] for mouse IL1β; F-[…] and R-[…] for mouse IL6; F-[…] and R-[…] for mouse TNFα; F-CCGTAACTGCACTGAAGA-AG and R-[…] for VPAC-1; F-CAGCAGACCAGGAAACAT-AA and R-GCCACACGCATCTATGAA for VPAC-2 and F-[…] and R-[…] for Gapdh. The reaction was subjected to 40 cycles of amplification using the following program: 95°C for 20 s, 60°C for 20 s, and 72°C for 25 s. The relative mRNA expression levels of the selected genes were normalized to the level of Gapdh.
IL1β, IL6 and TNFα are the main mediators of Ti particle-mediated inflammation and osteolysis ([Eger et al., 2017]; [Eger et al., 2018]). […]

[3] = 7.0 µCi/rat in 5% Sefsol, vaginal delivery, Wistar rats at estrus, monitored over 250 min, gamma counter, at least two rats per point
[4] = subcutaneous, 7 mg/rat (1000X, group 4)

Stearyl–HSDAVFTDNYTRLRKQ-Nle-AVKKYLNSILN-NH2 [SNV, Stearyl-norleucine-VIP, lipophilic VIP derivative with N-terminal stearic acid and norleucine in place of methionine at position 17]
Levels of SNV in the blood, heart, lungs, liver, gut, uterus and kidneys (radioactivity) [1, 3]: steadily increased | Local levels of SNV in the vagina (radioactivity) [1, 3]: decline over time | Penetrability through the vaginal epithelium ([1]; vaginal delivery in rats, over 250 min): high penetrability | Acute median lethal subcutaneous dose (rats; S.D. rats, 6 males + 6 females per group, single injection close to penile or vaginal tissue, 14 observation days, 7 mg/rat = maximal practical dose): Under the conditions of this study, the acute median lethal subcutaneous dose of SNV was found to be greater the 7 mg/rat, which is the maximal practical dose | Mortality (rats; subcutaneous, 7 µg/rat (1×), 14 observation days): None | Mortality (rats; subcutaneous, 7 mg/rat (1000X), 14 observation days): None | Reactions: body weight (rats; [4]): significant weight loss until 8th day, returning to original weight on day 12–14 | Reactions: diarrhea (rats; [4]): Diarrhea in 2 males of group 4 (1000X) 5–24 after injection, lasting for 2 days | Reactions: skin necrosis (rats; subcutaneous, affected treatment group(s) not specified): Necrosis of abdominal (male only) or penile skin on day 13–14 after injection | Effect on TNFα expression vs LPS ([2]; n=5): no effect | Reduction of IL1β expression levels vs LPS ([2]; n=5, p < 0.05): 35% | Change of IL6 expression vs LPS ([2]; n=5, plus = increase): no effect
